Test results as given in patent publication US20020032228A1 (priority 2000, published 2002).
Entries after “also recorded” stand apart in the source; their conditions may differ. Where two headings read alike, the source gives them in different places.

Columns and labels:
[1] = system: mouse intestinal loops challenged with cholera toxin; format: in vivo
CHO cells = format: cell-based, Chinese hamster
Xenopus laevis epidermis = format: cell-based
physchem = settings: pH 5.5
[2] = 168 h, pH 5.5
[3] = system: mouse intestinal loops challenged with cholera toxin; format: in vivo; settings: 6 hour
Adenylate Cyclase = Adenylate Cyclase (Bordetella pertussis, UniProt P0DKX7); assay: biochemical; format: biochemical
[4] = enzyme 4.6 nmoles, imidazole 2.7 mmoles, PGE2-Histidine adduct 52 μmoles, celecoxib 0.52 mmoles

Chain of Adenylate Cyclase (P0DKX7 whole entry, looked up): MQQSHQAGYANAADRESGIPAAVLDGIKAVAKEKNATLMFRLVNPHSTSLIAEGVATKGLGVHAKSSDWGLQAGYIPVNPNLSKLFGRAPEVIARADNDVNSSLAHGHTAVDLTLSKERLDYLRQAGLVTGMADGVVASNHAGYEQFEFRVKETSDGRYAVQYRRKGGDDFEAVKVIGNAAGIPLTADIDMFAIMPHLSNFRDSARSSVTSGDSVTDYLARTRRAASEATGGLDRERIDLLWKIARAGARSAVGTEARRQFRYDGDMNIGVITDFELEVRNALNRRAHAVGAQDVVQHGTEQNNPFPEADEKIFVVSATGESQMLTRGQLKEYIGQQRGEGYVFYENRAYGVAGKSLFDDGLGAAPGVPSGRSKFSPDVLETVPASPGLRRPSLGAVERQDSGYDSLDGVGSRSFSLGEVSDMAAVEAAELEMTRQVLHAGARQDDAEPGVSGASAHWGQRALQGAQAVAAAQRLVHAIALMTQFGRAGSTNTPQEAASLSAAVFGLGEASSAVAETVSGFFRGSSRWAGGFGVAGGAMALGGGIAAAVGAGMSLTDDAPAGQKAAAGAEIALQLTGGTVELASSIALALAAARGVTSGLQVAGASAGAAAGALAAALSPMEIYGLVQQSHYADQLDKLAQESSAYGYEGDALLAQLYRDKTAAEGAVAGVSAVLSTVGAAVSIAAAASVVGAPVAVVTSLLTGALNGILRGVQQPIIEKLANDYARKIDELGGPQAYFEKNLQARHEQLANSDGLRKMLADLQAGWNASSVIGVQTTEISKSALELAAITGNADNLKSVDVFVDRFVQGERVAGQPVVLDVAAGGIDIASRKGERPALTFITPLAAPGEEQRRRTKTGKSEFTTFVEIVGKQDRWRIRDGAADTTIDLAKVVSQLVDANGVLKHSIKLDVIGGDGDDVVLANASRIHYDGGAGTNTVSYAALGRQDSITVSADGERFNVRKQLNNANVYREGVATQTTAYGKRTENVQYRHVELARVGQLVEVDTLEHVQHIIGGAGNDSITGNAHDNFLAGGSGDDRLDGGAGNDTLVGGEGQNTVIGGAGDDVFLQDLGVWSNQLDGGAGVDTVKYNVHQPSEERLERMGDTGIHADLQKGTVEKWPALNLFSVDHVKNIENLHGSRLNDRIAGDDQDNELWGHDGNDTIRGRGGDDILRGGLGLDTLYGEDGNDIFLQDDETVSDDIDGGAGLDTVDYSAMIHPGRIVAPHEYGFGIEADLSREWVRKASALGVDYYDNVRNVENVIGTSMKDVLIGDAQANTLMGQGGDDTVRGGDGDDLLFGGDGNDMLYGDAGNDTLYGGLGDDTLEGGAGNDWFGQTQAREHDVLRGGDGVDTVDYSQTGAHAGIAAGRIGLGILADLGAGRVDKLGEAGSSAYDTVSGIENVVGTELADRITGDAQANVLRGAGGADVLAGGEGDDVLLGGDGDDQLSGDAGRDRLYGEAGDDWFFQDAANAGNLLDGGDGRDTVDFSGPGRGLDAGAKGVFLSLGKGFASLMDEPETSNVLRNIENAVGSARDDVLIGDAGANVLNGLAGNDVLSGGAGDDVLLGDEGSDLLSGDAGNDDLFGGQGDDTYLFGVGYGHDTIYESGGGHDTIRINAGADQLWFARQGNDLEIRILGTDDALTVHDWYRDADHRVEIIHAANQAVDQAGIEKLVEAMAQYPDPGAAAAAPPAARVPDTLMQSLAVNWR

## N[C@@H](Cc1c[nH]cn1)C(=O)O [L-histidine]
[1]; 6 hours
  fluid accumulation in mouse intestinal loops challenged with cholera toxin: as the dose of L-histidine was increased, the amount of fluid accumulation decreased; also recorded: accumulated significantly less fluid
  reduction of fluid accumulation, statistical significance: statistical significance (P<0.05)
CHO cells
  PGE2- and CT-stimulated cAMP formation in CHO cells: reduced the capacity of both PGE2 and CT to stimulate cAMP formation
Xenopus laevis epidermis
  Difference in ISC between PGE2 and PGE2+L-histidine: 78±21%
  ISC, % of control: 30±9 % of control
  basal and PGE2-induced sodium transport: reduced both basal and PGE2-induced sodium transport

## CC(=O)N[C@@H](CS)C(=O)O [NAC, N-acetyl-L-cysteine, reference compound]
[1]; mouse, in vivo
  intestinal fluid accumulation: blocked all intestinal fluid accumulation
[1]; mouse, in vivo, ip, pH 7
  protection against CT-induced fluid secretion in small intestinal loops: no protective effect

## CCCCC[C@H](O)/C=C/[C@H]1C=CC(=O)[C@@H]1C/C=C\CCCC(=O)O [PGA2, reference compound]
[1]; mouse, in vivo
  CT-induced fluid accumulation in murine intestinal loops: reduce CT-induced fluid accumulation in murine intestinal loops with lower potency

## CCCCC[C@H](O)/C=C/C1=C(C/C=C\CCCC(=O)O)C(=O)CC1 [PGB2, reference compound]
[1]; mouse, in vivo
  CT-induced fluid accumulation in murine intestinal loops: reduce CT-induced fluid accumulation in murine intestinal loops with lower potency

## CCCCCC(O)/C=C/[C@H]1C(O)CC(=O)[C@H]1C/C=C\CCCC(=O)O (some centres unmarked) [PGE2, reference compound]
Xenopus laevis epidermis
  increase of steady-state Na+-dependent short circuit current (ISC): 14%
Xenopus laevis epidermis; n=5
  maximum PGE2-induced change in ISC: 18±3%

## CCCCCC(O)/C=C/[C@H]1C(n2ccnc2)CC(=O)[C@H]1C/C=C\CCCC(=O)O (some centres unmarked) [PGE2-imidazole, 11-deoxy-11-imidazolyl-PGE2]
physchem
  half-life: ~60 h
[1]; 6 hour
  CT-induced fluid accumulation: significantly reduced
[1]; mouse, in vivo
  fluid loss following CT challenge: completely blocked
  inhibition of the CT fluid response: virtually complete inhibition
[2]
  adduct remaining: 10%
CHO cells
  inhibition of CT-induced cAMP formation: significant inhibition; also recorded: reduces cAMP levels
CHO cells; 0.5 μg/ml
  reduction of cAMP levels: approximately 50%
[3]
  cAMP levels in the intestinal loop fluids: markedly reduced

## COc1ccc(-n2nc(C(F)(F)F)cc2-c2ccc(Cl)cc2)cc1 [SC560, reference compound]
[1]; mouse, in vivo, sc
  cholera toxin-induced fluid secretion: inhibits cholera toxin-induced fluid secretion

## Cc1ccc(-c2cc(C(F)(F)F)nn2-c2ccc(S(N)(=O)=O)cc2)cc1 [celecoxib, reference compound]
[1]; 6 hours
  CT-induced fluid accumulation in murine intestinal loops: significantly reduced
Adenylate Cyclase
  IC50: 20 µM
Adenylate Cyclase; [4]
  inhibition of adenylate cyclase enzyme activity (FIG. 12): inhibit adenylate cyclase enzyme activity

## c1c[nH]cn1 [imidazole]
Adenylate Cyclase
  IC50: 1570 µM
Adenylate Cyclase; [4]
  inhibition of adenylate cyclase enzyme activity (FIG. 12): inhibit adenylate cyclase enzyme activity
Adenylate Cyclase; enzyme 0.46 nm
  Ratio Enzyme:Drug, molar concentration required to inhibit Adenylate Cyclase: 0.46 nm:1.57 mm

## CS(=O)(=O)c1ccc(C2=C(c3ccccc3)C(=O)OC2)cc1 [rofecoxib, reference compound]
[1]; mouse, in vivo
  cholera toxin-induced secretion: does not inhibit cholera toxin-induced secretion
Adenylate Cyclase; [4]
  inhibition of adenylate cyclase enzyme activity (FIG. 12): absence of adenylate cyclase inhibition

## prostaglandin E2-histidine [PGE2-histidine]
[1]; mouse, in vivo
  inhibition of the CT fluid response: virtually complete inhibition
Adenylate Cyclase
  inhibition of adenylate cyclase enzyme activity (FIG. 12): inhibit adenylate cyclase enzyme activity
Adenylate Cyclase; read-out: IC50 dose inhibiting 50% of the enzyme activity
  IC50: 21.5 µM
